Measured values from patent US4277479A, “Tetrazolylalkoxycarbostyril derivatives and pharmaceutical compositions containing them” (Otsuka Pharmaceutical Co., Ltd., priority 1978, dated 1981).

Experiments:
[1] = tested on: Gold blatt type renoprival hypertension rats (RHR); assay: Hypo-tensive effect, Gold blatt type renoprival hypertension rats (RHR), tail-cuff method; type: in vivo, rat; settings: 30 mg/kg oral, mean ± standard deviation
Description: Hypo-tensive effect of the compounds was measured by determining the maximum blood pressure of the test animals according to a procedure of Tail-cuff method.
The following types of test animals were used:
(1) Gold blatt type renoprival hypertension rats (RHR)
Wistar strain male rats having 160-180 g of body weight were anesthetized with ether and the left-side renal artery was plugged with a silver clip having 0.2 mm inside diameter, while the right-side renal artery was kept as it was without operation. Four (4) weeks after the operation, rats having the maximum blood pressure over 150 mmHg were selected and used as test animals after having been denied food overnight.
Each of compounds to be tested was administered orally and the blood pressure of the rats was measured before the administration and 1, 2, 4, 6 and 8 hours after the administration. The blood pressure was measured by using Recorder (Rectihoriz type 8S, San-ei Instrument) and Electrosthygmomanometer PE-300 (Macro Bio-systems, Houston, Tex.).

[2] = Acute toxicity test; settings: mouse, in vivo; male mice, oral administration
Description: The test compounds were administered orally to the mice and LD50 (mg/kg) of the compounds was determined.

[3] = biological target: T1, cyclic AMP phosphodiesterase (Oryctolagus cuniculus, UniProt G1ST54); assay: Obstructive action against cyclic AMP phosphodiesterase; type: biochemical, rabbit; settings: 0.4 μmol cyclic AMP, read-out: Phosphodiesterase obstruction rate; for inhibition: concentration of test compound solution 10^-7 mole; for inhibition at 0.01 µM: concentration of test compound solution 10^-8 mole; for inhibition at 0.001 µM: concentration of test compound solution 10^-9 mole; for inhibition at 1 µM: concentration of test compound solution 10^-6 mole
T1 construct: the supernatant was collected to use it as a crude enzyme solution; from tissue; host or cells: rabbit platelets (from platelet-rich plasma)
T1 sequence (G1ST54 1-1128): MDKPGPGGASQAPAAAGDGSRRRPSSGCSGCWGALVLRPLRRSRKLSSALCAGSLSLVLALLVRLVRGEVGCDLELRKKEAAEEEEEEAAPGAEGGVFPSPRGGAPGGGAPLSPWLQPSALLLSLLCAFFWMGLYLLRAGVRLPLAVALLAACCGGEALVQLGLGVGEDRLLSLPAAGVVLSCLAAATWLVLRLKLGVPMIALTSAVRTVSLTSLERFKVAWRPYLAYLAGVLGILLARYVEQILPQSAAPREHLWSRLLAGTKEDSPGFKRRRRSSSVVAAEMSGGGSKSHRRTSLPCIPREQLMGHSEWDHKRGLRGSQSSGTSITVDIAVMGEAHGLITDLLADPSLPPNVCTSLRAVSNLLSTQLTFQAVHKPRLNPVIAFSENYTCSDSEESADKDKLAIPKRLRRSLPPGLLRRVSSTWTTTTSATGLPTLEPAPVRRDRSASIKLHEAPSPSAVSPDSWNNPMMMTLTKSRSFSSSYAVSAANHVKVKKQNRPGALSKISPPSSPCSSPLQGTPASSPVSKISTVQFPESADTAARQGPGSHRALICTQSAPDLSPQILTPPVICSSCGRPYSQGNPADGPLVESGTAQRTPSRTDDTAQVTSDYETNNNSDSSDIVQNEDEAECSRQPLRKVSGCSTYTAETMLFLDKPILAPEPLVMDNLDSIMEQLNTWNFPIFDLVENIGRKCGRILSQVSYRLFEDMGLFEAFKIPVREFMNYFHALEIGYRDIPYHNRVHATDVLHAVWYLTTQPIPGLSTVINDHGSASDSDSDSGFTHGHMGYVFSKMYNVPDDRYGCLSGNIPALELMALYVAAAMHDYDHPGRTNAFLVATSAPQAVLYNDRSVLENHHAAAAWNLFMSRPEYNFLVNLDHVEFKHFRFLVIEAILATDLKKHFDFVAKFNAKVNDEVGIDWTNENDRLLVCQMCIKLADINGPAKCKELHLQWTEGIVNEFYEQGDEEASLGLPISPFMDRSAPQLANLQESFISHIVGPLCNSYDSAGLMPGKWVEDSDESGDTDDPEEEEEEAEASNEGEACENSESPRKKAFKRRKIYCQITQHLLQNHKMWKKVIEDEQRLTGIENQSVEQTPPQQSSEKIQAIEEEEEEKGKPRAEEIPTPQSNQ
Description: (Test of obstructive action against cyclic AMP phosphodiesterase)
The obstructive action against cyclic AMP phosphodiesterase was measured according to the activity measuring method described in "Biochimica et Biophysica Acta", Vol. 429, pp. 485-497 (1976) and "Biochemical Medicine", Vol. 10, pp. 301-311 (1974).
That is, for determining the obstructive activity against cyclic AMP phosphodiesterase, 10 ml of a solution obtained by adding 1 mmol of MgCl2 into 50 mmol of tris-hydrochloric acid buffer with pH 7.4 was added to the platelets obtained by further centrifuging the above-said rabbit PRP at 3,000 r.p.m. for 10 minutes, and the suspended platelets were ground by a Teflon potter type homogenizer. This was followed by two times of freezing and thawing treatment and 300-second fracturing with 200 watt supersonic waves. After additional 60-minute centrifugation with 100,000 g, the supernatant was collected to use it as a crude enzyme solution.
10 Milliliters of this crude buffer solution was added to a 1.5×20 cm DEAE-cellulose column which has previously been buffered with 50 mmol of tris-acetate buffer (pH 6.0), followed by washing and elution with 30 ml of 50 mmol tris-acetate buffer, and this buffer solution was subjected to linear gradient elution with 0 to 1 moles of sodium acetate-tris-acetate buffer. The flow rate was 0.5 ml/min, and 5 ml of each fraction was batched out. […] This fraction was used as cyclic AMP phosphodiesterase.
0.1 Milliliter of an aqueous solution of each test compound of a specified concentration was mixed with 40 mmol of tris-hydrochloric acid buffer (pH 8.0, containing 50 μg of cow serum albumin and 4 mmol of MgCl2) containing predetermined 0.4 μmol of cyclic AMP (tritium cyclic AMP), and 0.2 ml of this mixed solution was used as a substrate solution.
0.2 Milliliter of the above-prepared cyclic AMP phosphodiesterase of a predetermined concentration was added to said substrate solution and the mixture was reacted at 30° C. for 20 minutes, producing tritium 5'-AMP from the tritium cyclic AMP.
The reaction system was then immersed in boiling water for 2 minutes to stop the reaction, and then this reaction solution was cooled in ice water and, for converting the produced tritium 5'-AMP into tritium adenosine, the solution was added with 0.05 ml (1 mg/ml) of snake poison as 5'-nucleotidase and reacted at 30° C. for 10 minutes. The whole amount of this reaction solutions was then added to a cation exchange resin (AG 500 W×4, 200-400 meshes, manufactured by Bio-Rad Co., column size: 0.5×1.5 cm), and the produced tritium anodesine alone was allowed to combine, washed with 6 ml of distilled water and eluted with 1.5 ml of 3 N-ammonia water. The whole quantity of the elutant was added with 10 ml of a triton-toluene type scintillator and the produced tritium adenosine was measured by a liquid scintillation counter to determine the phosphodiesterase activity.
In this way, the phosphodiesterase activation value (Vs) of the test compounds of the respective concentrations was determined, and the phosphodiesterase obstruction rate (%) was determined from said activation value (Vs) and control value (Vc) (obtained from water not containing any test compound) from the following formula: [formula]

| Compound | Maximum blood pressure, difference after the administration ([1]; 1 hour) [mmHg] | Maximum blood pressure, difference after the administration ([1]; 2 hours) [mmHg] | Maximum blood pressure, difference after the administration ([1]; 4 hours) [mmHg] | Maximum blood pressure, difference after the administration ([1]; 6 hours) [mmHg] | Maximum blood pressure, difference after the administration ([1]; 8 hours) [mmHg] | LD50 [2] [mg/kg] | inhibition [3] [%] | inhibition at 0.01 µM [3] [%] | inhibition at 0.001 µM [3] [%] | inhibition at 1 µM [3] [%] |
| --- | --- | --- | --- | --- | --- | --- | --- | --- | --- | --- |
| O=c1ccc2cc(OCCCCc3nnnn3C3CCCCC3)ccc2[nH]1 [Compound 7, 6-[4-(1-Cyclohexyltetrazol-5-yl)butoxy]carbostyril] | -9.5 ± 10.4 | -12.6 ± 8.9 | -34.9 ± 19.8 | -30.4 ± 8.6 | -19.7 ± 8.4 | > 1000 | 98.4 | 68.3 | 50.6 |  |
| O=c1ccc2cc(OCCCc3nnnn3CC3CCCCC3)ccc2[nH]1 [Compound 5, 6-[3-(1-Cyclohexylmethyltetrazol-5-yl)propoxy]carbostyril] | -30.2 ± 8.2 | -21.2 ± 5.7 | -21.7 ± 7.5 | -24.7 ± 10.4 |  | > 1000 | 73.4 | 55.2 | 38.6 | 89.9 |
| O=c1ccc2cc(OCCCc3nnnn3C3CCCCC3)ccc2[nH]1 [Compound 1, 6-[3-(1-Cyclohexyltetrazol-5-yl)propoxy]carbostyril] | -3.3 ± 5.2 | -9.9 ± 6.7 | -36.7 ± 9.7 | -33.4 ± 8.6 | -31.3 ± 8.8 | > 1000 | 83.8 | 58.4 | 44.7 | 92.9 |
| O=c1ccc2cc(OCCCc3nnnn3C3CCCCCCC3)ccc2[nH]1 [Compound 6, 6-[3-(1-Cyclooctyltetrazol-5-yl)propoxy]carbostyril] | -8.5 ± 4.3 | -10.7 ± 7.6 | -40.8 ± 9.9 | -35.4 ± 9.5 | -28.4 ± 7.7 | > 1000 | 79.6 | 57.4 | 36.5 | 88.4 |
